Experimental data as given in the METLIN SMRT retention time set (Domingo-Almenara et al. 2019).

Test: gradient 5% acetonitrile 3 min, to 50% in 2 min, to 85% in 15 min, held 3 min, 100 µL/min
Details: column: Zorbax Extend-C18 2.1 x 50 mm; eluents: water / acetonitrile, 0.1% formic acid
Outline: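 Retention times come from adduct peaks that were picked computationally and then checked by hand. The standards, pure and pooled in mixtures of ~100 molecules, were run on a Zorbax Extend-C18 column (2.1 × 50 mm, 1.8 μm) at 100 μL/min with water and acetonitrile, each with 0.1% formic acid. Detection was by quadrupole time-of-flight mass spectrometry in positive and negative ionization mode, with a dead volume of 40 μL and a dwell volume of 900 μL.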

Row | RP-LC retention time [s] | SMILES
1 | 586 | O=C(NCc1ccc(N2CCOCC2)cc1)c1cn2c(n1)CCCC2
2 | 659 | O=C(NCCCN1CCc2ccccc2C1)c1noc2c1CCCC2
3 | 664 | CN(C)c1cccc(C(=O)NC2CCN(c3cc(-c4ccccc4)[nH]n3)C2)c1 (stereo unspecified)
4 | 1020 | Cc1cccc(-c2noc(CN3N=NC4C(=O)N(c5ccc(F)cc5)C(=O)C43)n2)c1 (stereo unspecified)
5 | 636 | CCC1CN2C=NC(N3CCN(C(=O)c4nn(C)c5ccccc45)CC3)=CC2=N1 (stereo unspecified)
6 | 645 | Cc1nc2cc3c(cc2n1CC(=O)NCc1ccccc1Cl)OCCO3
7 | 1070 | COc1ccc(C2(C(=O)N3CCO[C@@H](COc4ccccn4)[C@@H]3c3ccccc3)CC2)cc1
8 | 998 | Cc1ccc2[nH]cc(CCNC(=O)c3ccc(N4CCCC4)c(S(=O)(=O)N4CCCC4)c3)c2c1
9 | 956 | COc1ccc(N2CC(c3noc(-c4ccc(Cl)cc4)n3)CC2=O)cc1OC (stereo unspecified)
10 | 793 | CCC(C)C(NC(=O)c1ccc(Cl)cc1)C(=O)Nc1nc2ccccc2[nH]1 (stereo unspecified)
11 | 1060 | Cc1ccc(-c2csc(NC(=O)c3ccc4c(c3)OCO4)n2)cc1
12 | 1010 | Cc1cc(C)cc(NC(=O)Cn2nc(N3CCCC3)c3ccccc3c2=O)c1
13 | 896 | CCN1C(=O)c2cccnc2Sc2cc(NC(=O)c3ccc(C)c(F)c3)ccc21
14 | 1020 | COc1cccc(-c2csc(Cc3nc(-c4cccs4)no3)n2)c1
15 | 1120 | COc1ccc2c(c1)-c1nc(NC(=O)c3cccc(F)c3)sc1CC2
16 | 659 | CC1=C(C(=O)N2CCOCC2)C(c2ccc(F)c(Br)c2)C2=C(CCCC2=O)N1 (stereo unspecified)
17 | 706 | CS(=O)(=O)N1CCN(Cc2cc3nc(-c4cccc5[nH]ncc45)nc(N4CCOCC4)c3s2)CC1
18 | 643 | O=C(NCc1ccnc(N2CCSCC2)c1)Nc1ccccc1Cl
19 | 588 | C=CCc1ccccc1OCC(O)CN1CCC(C)CC1 (stereo unspecified)
20 | 592 | COc1ccc(OCc2noc(CNC(=O)Cn3cnc4ccccc43)n2)cc1
21 | 589 | CC(=O)N1CCN(C2=NC(=O)/C(=C\c3ccc(O)c([N+](=O)[O-])c3)S2)CC1
22 | 788 | COc1ccc(NC(=O)N(C)CCc2noc(COc3ccccc3)n2)cc1OC

Row | RP-LC retention time [s] | SMILES
23 | 823 | COC(=O)COc1cc(-c2cccc(Cl)c2)nc2ccc(NC(=O)C3CC3)cc12
24 | 651 | O=c1c2cc(-c3ccccc3)nn2ccn1Cc1noc(CN2CCCCC2)n1
25 | 702 | Cc1ccc(CS(=O)(=O)Nc2ccc3c(c2)nc(-c2ccc(C(=O)NC(C)C)cc2)n3C)cc1
26 | 620 | O=C(c1ccncc1)N1CCCC(OCc2nc(C3CC3)no2)C1 (stereo unspecified)
27 | 770 | O=C(O)CCC1CCCN(S(=O)(=O)c2ccccc2)C1 (stereo unspecified)
28 | 1030 | COc1cc(Cl)c(NS(=O)(=O)c2cc(-c3cc(C(F)(F)F)[nH]n3)sc2C)c(OC)c1
29 | 642 | O=S(=O)(c1ccc(-c2nnc(C3CC3)o2)o1)N1CCN(C2CCCCC2)CC1
30 | 733 | Cc1cccn2cc(C(=O)NCc3ccc(F)cc3F)nc12
31 | 972 | C(=C\c1ccccc1)/CN1CCN(C(c2ccccc2)c2ccccc2)CC1
32 | 762 | Cc1cc(C)c(-c2noc(C)n2)c(NC(=O)c2ccccc2Br)n1
33 | 849 | O=C(NCc1cccs1)c1nnc(-c2ccc(S(=O)(=O)N3CCCC3)cc2)o1
34 | 1120 | COCCCn1c(=O)c2ccccc2n(Cc2nc(-c3ccc(Br)cc3)no2)c1=O
35 | 736 | CC1CC=C(O)C12OCC(C)(C)CO2 (stereo unspecified)
36 | 692 | O=S(=O)(c1cccnc1)N1CCN(c2ccc(-c3cccs3)nn2)CC1
37 | 656 | COc1cc(OC)cc(C(=O)NC(C)C(=O)Nc2nc3ccccc3[nH]2)c1 (stereo unspecified)
38 | 1150 | CCCN1C(=O)COc2ccc(-c3noc(CCc4ccccc4)n3)cc21
39 | 889 | CS(=O)(=O)Oc1ccc(Br)c2cccnc12
40 | 1120 | Cc1cccc(-n2c(=O)c3sccc3n(Cc3nc(-c4ccc(C(F)(F)F)cc4)no3)c2=O)c1
41 | 764 | CCOc1ccc(C(=O)N2C[C@@H]3C[C@H]2C[C@@H]3NS(=O)(=O)c2ccccc2)cc1
42 | 596 | Cc1ccc(C(=O)NC2CCN(c3nnc4ccccn34)CC2)cc1N1CCCC1=O
43 | 795 | Cc1ccc(NC(=O)N(C)CC2CCOCC2)cc1C
44 | 828 | O=C(c1cnccn1)N1CCN(c2nc(-c3ccc(Cl)cc3)no2)CC1

Row | RP-LC retention time [s] | SMILES
45 | 772 | CN(C)C(=O)c1cc2c(s1)CCC(C(=O)Nc1ccccc1)C2 (stereo unspecified)
46 | 601 | Cc1cc(=O)n2c3c(c4c(cc13)c(CN(C)C)cc(=O)n4C)OC2
47 | 814 | Cn1c(=O)c2c(-c3ccc(Cl)cc3)c(C#N)c(N)nc2n(C)c1=O
48 | 660 | CCc1noc(-c2cccnc2N2CCCN(Cc3cccc(F)c3)CC2)n1
49 | 645 | Cc1cccc(C(=O)NC2CCN(c3nnc4ccccn34)CC2)c1
50 | 828 | Cc1ccc(CNC(=O)c2ccc3ccnc(N4CCN(c5ccc(F)cc5)CC4)c3c2)o1
51 | 961 | COC(=O)C1C(=O)C2=C(CC1C)NC(C)=C(C(=O)OCCOC(C)C)C2c1cccc(F)c1 (stereo unspecified)
52 | 761 | COc1ccc(CC(=O)N2CCC3(CC2)NC(=O)c2cccc(Cl)c2N3)cc1
53 | 589 | CN(C)C(CNC(=O)Nc1ccccc1Cl)c1cn(C)c2ccccc12 (stereo unspecified)
54 | 694 | CS(=O)(=O)N1CCC(C(=O)NCc2csc(-c3cccs3)n2)CC1
55 | 869 | CSc1cccc(NC(=O)CN2C(=O)C3CCCCN3c3ccc(C(=O)N4CCCC4)cc32)c1 (stereo unspecified)
56 | 815 | Cc1ccc(C)c(Nc2c(-c3ccccc3)nc3ncccn23)c1
57 | 794 | COC(=O)c1c(C)[nH]c(C(=O)N2CCC(CC(=O)NC3CCCCCC3)CC2)c1C
58 | 659 | CCc1nn2c(CNC(=O)c3cc(Cl)ccc3OC)c(C)nc2s1
59 | 944 | O=c1n(Cc2ccc3c(c2)OCO3)nc2c(-c3nc(-c4ccccc4)no3)cccn12
60 | 759 | COc1ccc(C(=O)N2CCC3(C2)C(=O)N(C)c2ccccc23)c(OC)c1 (stereo unspecified)
61 | 994 | COC(=O)c1cccc(Nc2c(-c3ccc(C)cc3)nc3cnc(Br)cn23)c1
62 | 828 | Cc1cccn2cc(-c3cccc(S(=O)(=O)N4CC(C)CC(C)C4)c3)nc12 (stereo unspecified)
63 | 804 | CCS(=O)(=O)N1CCc2c(c(CN(C(=O)c3ccc(F)cc3)c3ccccc3)nn2C)C1
64 | 807 | COC(=O)c1scc(-c2ccc(C)cc2)c1S(=O)(=O)N1CCN(c2ccccn2)CC1
65 | 609 | O=S(=O)(Cc1cccc(Cl)c1)NCC(c1ccc(F)cc1)N1CCOCC1 (stereo unspecified)
66 | 1200 | O=C(NCc1cc(F)cc(F)c1)c1c(O)c2cccnc2n(-c2cccc(F)c2)c1=O
